For assay [1], the system named is MCF7. Kind of assay: cells. Particulars: Homo sapiens, MCF7, 48 h.
Assay [2] has as its system A549. The experiment in a line: cells. Particulars: Homo sapiens, A549, 48 h.
For assay [3], the system named is MDA-MB-231. Kind of assay: cells. Particulars: Homo sapiens, MDA-MB-231, 48 h.
Assay [4] concerns A549. The experiment in a line: Inhibition of oxidative stress in human A549 cells assessed as reduction in ROS production at 1 to 5 uM by DCFH-DA staining based microplate reader analysis. It is filed as functional, cell-based. Particulars: dose 1-5 µM.
In assay [5] the test system is A549. Kind of assay: Downregulation of KRAS gene expression in human A549 cells by SYBR green dye based qPCR analysis. It is filed as functional, cell-based. A general note: In qPCR the cycle at which signal appears reflects the starting amount.
Assay [6] relates to A549. Kind of assay: Induction of mitochondrial membrane hyperpolarization in human A549 cells at 1 to 5 uM by JC-1 staining based fluorescence microplate reader assay. It is filed as functional, cell-based. Particulars: dose 1-5 µM.
Assay [7] has as its system A549. Kind of assay: Downregulation of EGFR gene expression in human A549 cells by SYBR green dye based qPCR analysis. It is filed as functional, cell-based.
In assay [8] the test system is A549. The experiment in a line: Downregulation of MAP2K gene expression in human A549 cells by SYBR green dye based qPCR analysis. It is filed as functional, cell-based.
The target in assay [9] is T1, Epidermal growth factor receptor (Homo sapiens, UniProt P00533). Particulars: dose 200.0 nM, time 2.0 hrs.
T1 sequence (P00533 whole entry): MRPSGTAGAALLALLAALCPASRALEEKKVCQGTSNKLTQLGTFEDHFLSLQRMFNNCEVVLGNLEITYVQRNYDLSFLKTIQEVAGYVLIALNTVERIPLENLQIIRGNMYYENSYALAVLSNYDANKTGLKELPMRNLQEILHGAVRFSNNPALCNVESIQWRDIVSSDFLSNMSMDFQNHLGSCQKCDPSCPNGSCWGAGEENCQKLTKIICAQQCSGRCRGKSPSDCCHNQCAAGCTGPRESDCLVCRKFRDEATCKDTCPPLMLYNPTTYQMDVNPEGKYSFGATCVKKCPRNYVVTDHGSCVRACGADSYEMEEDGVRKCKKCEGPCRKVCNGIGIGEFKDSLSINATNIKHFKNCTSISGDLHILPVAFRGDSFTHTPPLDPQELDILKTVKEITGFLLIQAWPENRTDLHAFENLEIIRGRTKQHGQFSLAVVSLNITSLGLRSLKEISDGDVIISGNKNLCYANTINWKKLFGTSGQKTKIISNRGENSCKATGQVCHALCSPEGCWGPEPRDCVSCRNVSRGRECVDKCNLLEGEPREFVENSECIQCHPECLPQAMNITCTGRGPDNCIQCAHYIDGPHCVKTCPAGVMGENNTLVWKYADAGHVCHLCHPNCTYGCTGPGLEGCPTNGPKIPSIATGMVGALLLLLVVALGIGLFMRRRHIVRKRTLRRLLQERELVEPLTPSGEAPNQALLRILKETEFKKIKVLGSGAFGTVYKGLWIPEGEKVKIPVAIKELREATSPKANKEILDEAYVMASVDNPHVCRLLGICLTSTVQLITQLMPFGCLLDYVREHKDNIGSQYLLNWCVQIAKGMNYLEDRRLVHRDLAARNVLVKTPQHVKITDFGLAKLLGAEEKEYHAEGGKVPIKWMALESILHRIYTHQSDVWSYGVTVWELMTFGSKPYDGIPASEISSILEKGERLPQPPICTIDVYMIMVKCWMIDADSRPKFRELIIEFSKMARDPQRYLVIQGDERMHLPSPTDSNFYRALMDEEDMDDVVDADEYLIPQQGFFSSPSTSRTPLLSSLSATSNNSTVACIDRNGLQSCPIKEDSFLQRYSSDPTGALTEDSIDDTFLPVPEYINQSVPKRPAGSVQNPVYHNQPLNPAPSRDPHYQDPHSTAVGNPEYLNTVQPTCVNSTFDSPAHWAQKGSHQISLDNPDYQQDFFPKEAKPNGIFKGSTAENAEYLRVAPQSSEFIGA
The target of assay [10] is T1, Epidermal growth factor receptor. Kind of assay: Inhibition of EGFR (unknown origin) mediated phosphorylation incubated for 2 hrs in presence of ATP by Z-LYTE assay.

pIC50: −log10 of the molar value. The source made the active and inactive calls. The calls are words filed in the database; no cut-off is given here.

In general, pIC50 refers to −log10 of the IC50, conventionally taken in molar units. For the molecule `COc1cc(-c2nc3ccccc3n3c(/N=C/c4c[nH]c5ccccc45)c(C#N)nc23)cc(OC)c1OC`, the pIC50 in assay [1] is 5.05; in assay [2] it was less than 4.60; in assay [3] it was less than 4.60.
The inhibition is how much of the control response was suppressed. In the case of `COc1cc(-c2nc3ccccc3n3c(/N=C/c4ccsc4)c(C#N)nc23)cc(OC)c1OC`, the inhibition result in [4] was “Active”. Besides, the outcome in assay [5], in assay [6], in assay [7] and in assay [8] was Active. For the same molecule, the pIC50 was 4.84 in assay [1], 5.87 in [2] and less than 4.60 in assay [3].
For `COc1cc(-c2nc3ccccc3n3c(/N=C/c4ccc(Cl)cc4)c(C#N)nc23)cc(OC)c1OC`, the pIC50 in assay [1] is 5.42; in [2] it was 5.35; in assay [3], 5.23.
As to `C#Cc1cccc(Nc2ncnc3cc(OCCOC)c(OCCOC)cc23)c1`, the outcome in [5], in assay [7] and in [8] was Active.
Molecule `COc1cccc(/C=N/c2c(C#N)nc3c(-c4cc(OC)c(OC)c(OC)c4)nc4ccccc4n23)c1` came in with an inhibition in assay [9] of more than 50%. For the same molecule, the pIC50 in assay [10] was 7.12; in assay [1], 4.87; in assay [2], 5.45; in assay [3], 5.24. Besides, the inhibition result in assay [4] is “Active”. The result in assay [5], in [6], in assay [7] and in assay [8] was Active.
`COc1cc(-c2nc3ccccc3n3c(/N=C/c4cc(F)ccc4[N+](=O)[O-])c(C#N)nc23)cc(OC)c1OC`: the pIC50 in assay [1] was 5.00; in assay [2], 5.49; in assay [3], 4.94.
Turning to `COc1cc(-c2nc3ccccc3n3c(/N=C/c4cccnc4)c(C#N)nc23)cc(OC)c1OC`, the pIC50 was 4.62 in [1], 5.37 in assay [2] and 5.06 in assay [3].
Turning to `COc1cc(-c2nc3ccccc3n3c(/N=C/c4ccc(N(C)C)cc4)c(C#N)nc23)cc(OC)c1OC`, the figures for the pIC50 in assay [1], in assay [2] and in assay [3] were 4.62, 4.88 and 5.19, respectively.
As to `COc1cc(-c2nc3ccccc3n3c(/N=C/c4ccncc4)c(C#N)nc23)cc(OC)c1OC`, the pIC50 was 4.88 in assay [1], 4.78 in assay [2] and 5.05 in assay [3].

(Values after ChEMBL document CHEMBL5550196, “Design, synthesis, and anticancer assessment of structural analogues of (E)-1-((3,4,5-trimethoxybenzylidene)amino)-4-(3,4,5-trimethoxyphenyl)imidazo[1,2-a]quinoxaline-2-carbonitrile (6b), an imidazo[1,2-a]quinoxaline-based non-covalent EGFR inhibitor” (RSC Med Chem, 2024).)
